Like-named read-outs stand apart in the source and are kept apart here.
What was measured:
Type in all cases: cell-based
[1] = Cytotoxicity assay on MRC-5 fibroblasts; conditions: human; for CC50 at 3 day: MRC-5SV2 embryonic lung fibroblasts, Table 1, mean and SEM of two independent experiments, highest concentration 64 μM, read-out: MRC-5 off-target cytotoxicity (CC50)
Method: MRC-5SV2 (Sigma-Aldrich/ECACC, catalogue number 84100401) human embryonic lung fibroblasts were used to perform cytotoxicity assays. The cells were cultured in minimum essential medium (MEM, Life Technologies) with Earle's salt medium, supplemented with L-glutamine, NaHCO3 and 5% inactivated fetal bovine serum (iFBS). Cells were seeded at 1.5×10^4 cells/well and 4-fold compound dilutions were immediately added with a highest in-test concentration of 64 μM. After a 3-day incubation, resazurin (Sigma-Aldrich) was added to each well (final concentration of 10 μg mL^−1), and cell viability was assessed by fluorescent reading (Tecan®, GENios) following 4 h of incubation with resazurin (37° C./5% CO2). The results were expressed as percentage reduction in cell growth/viability compared to control wells and the 50% cytotoxic concentration (CC50) was calculated for each of the compounds.

T. brucei (Squib 427) = assay: In vitro drug susceptibility assay, T. brucei; conditions: Trypanosoma brucei
Method: (§1) Drug susceptibility assays with T. brucei (Squib 427), T. evansi type A (RoTat 1.2) and T. equiperdum (BoTat 1.1) were performed under similar conditions. Parasites were cultured in HMI-9 culture medium supplemented with 10% iFBS. To determine in vitro susceptibility of the abovementioned Trypanosoma species, 10 concentrations of a 4-fold dilution series (with a highest in-test concentration of 64 μM) was prepared for each compound, and parasites were seeded at 1.5×10^4 parasite/well. After 72 h of drug exposure at 37° C. with 5% CO2, resazurin was added to the wells (final concentration of 10 μg mL^−1), followed by another incubation for 24 h. Cell viability was determined by fluorescence reading (Tecan®, GENios) and 50% inhibitory concentration (IC50) was calculated for each compound.

T. vivax (ILRAD700) = assay: Ex vivo drug susceptibility assay, T. vivax; conditions: Trypanosoma vivax
From the text: T. congolense (IL3000), the isometamidium (ISM)-resistant T. congolense strain (MSORO M7H), T. evansi type A (RoTat 1.2), T. evansi type B (KETRI 2479) and T. equiperdum (BoTat 1.1) used for in vitro, ex vivo and in vivo experiments were kindly provided by the Institute of Tropical Medicine (ITM), and T. vivax (ILRAD700) and T. congolense (TC13) used for ex vivo and in vivo experiments, were kindly provided by the University of Brussel (VUB).
Ex Vivo Drug Susceptibility Assays for T. vivax, T. congolense ISM-Resistant, and T. evansi Type B
For Trypanosoma species/strains that were not adapted to culture conditions, donor mice were infected intraperitoneally with 10^4 parasites. Around day 5-6 post infection, blood was collected via cardiac puncture and parasites were isolated using mini-anion exchange centrifugation technique (mAECT). 4-fold dilutions of the test compounds were prepared with the highest concentration of 64 μM, and parasites were seeded at 1×10^5 parasite/well. Following 24 h of drug exposure at 37° C. and 5% CO2, resazurin was added to the wells and plates were incubated (37° C./5% CO2) for another 24 h. Cell viability was determined by fluorescence reading (Tecan®, GENios), and IC50 values were calculated by non-linear regression (dose-response curve with variable slope) using Prism 8.0 (GraphPad Software Inc., San Diego, CA, USA).

T. congolense (IL3000) = assay: In vitro drug susceptibility assay, T. congolense; conditions: Trypanosoma congolense; Table 3; compounds wherein X=N
Method: Drug susceptibility assays for T. congolense (IL3000) were performed with parasites cultured in HMI-9 medium supplemented with 15% horse serum. Parasites were seeded at a concentration of 1.5×10^4 parasite/well and exposed to a 4-fold compound dilution series starting at a highest in-test concentration of 64 μM. Plates were incubated for 72 h at 34° C. and 5% CO2, followed by the addition of resazurin (Sigma, Aldrich) and a further incubation period of 24 h. Cell viability was quantified by fluorescence reading (Tecan®, GENios), and IC50 values were calculated by non-linear regression (dose-response curve with variable slope) using Prism 8.0 (GraphPad Software Inc., San Diego, CA, USA).

[2] = tested on: T. evansi type A (RoTat 1.2); assay: In vitro drug susceptibility assay, T. evansi type A; conditions: Table 3; compounds wherein X=N; type not stated; read-out: IC50 T. evansi
Method: as §1

[3] = tested on: T. equiperdum (BoTat 1.1); assay: In vitro drug susceptibility assay, T. equiperdum; conditions: Trypanosoma equiperdum; Table 3; compounds wherein X=N
Method: as §1

[4] = In vitro evaluation on PMM; conditions: mouse, Table 3, compounds wherein X=N
T. cruzi = assay: In vitro evaluation against T. cruzi; conditions: Trypanosoma cruzi; Table 3; compounds wherein X=N
L. infantum = assay: In vitro evaluation against L. infantum; conditions: Leishmania infantum; Table 3; compounds wherein X=N
[5] = Table 1, mean and SEM of two independent experiments, read-out: T. brucei in vitro activity (IC50)
[6] = Table 1, mean and SEM of two independent experiments, read-out: T. vivax in vitro activity (IC50)

Compound	CC50 at 3 day [1]	IC50 (T. brucei (Squib 427); [5])	IC50 (T. vivax (ILRAD700); [6])	also measured
CCSc1ncnc2c1ccn2[C@@H]1O[C@H](CO)[C@@H](O)[C@H]1O [FH15938, 4-S-ethyl-N7-(β-D-ribofuranosyl)pyrrolo[2,3-d]pyrimidine]	28200 ± 2030 nM	250 ± 50 nM	31 ± 9 nM	–
OC[C@H]1O[C@@H](n2ccc3c(SCc4ccccc4)ncnc32)[C@H](O)[C@@H]1O [FH14905]	> 64000 nM	19 ± 2 nM	32300 ± 4850 nM	–
CCC(C)Sc1ncnc2c1ccn2[C@@H]1O[C@H](CO)[C@@H](O)[C@H]1O (stereo partly drawn) [FH15956, 4-S-sec-butyl-N7-(β-D-ribofuranosyl)pyrrolo[2,3-d]pyrimidine]	> 64000 nM	360 ± 40 nM	1980 ± 940 nM	–
CCCCSc1ncnc2c1ccn2[C@@H]1O[C@H](CO)[C@@H](O)[C@H]1O [FH15936]	> 64000 nM	30 ± 0.1 nM	24 ± 7 nM	–
OC[C@H]1O[C@@H](n2ccc3c(SC4CCCC4)ncnc32)[C@H](O)[C@@H]1O [FH15952, 4—S-cyclopentyl-N7-(β-D-ribofuranosyl)pyrrolo[2,3-d]pyrimidine]	45500 ± 1870 nM	91 ± 1 nM	620 ± 160 nM	–
CC(C)c1ccc(CSc2ncnc3c2ccn3[C@@H]2O[C@H](CO)[C@@H](O)[C@H]2O)cc1 [FH15941, 4-S-(4-isopropylbenzyl)-N7-(β-D-ribofuranosyl)pyrrolo[2,3-d]pyrimidine]	26900 ± 1380 nM	440 ± 20 nM	2370 ± 1470 nM	–
CSc1ncnc2c1cnn2[C@@H]1O[C@H](CO)[C@@H](O)[C@H]1O [JB1031, 4-methylthio-1-β-D-ribofuranosyl-1H-pyrazolo[3,4-d]pyrimidine]	–	–	–	IC50 at 3 day ([1]; MRC-5SV2 human embryonic lung fibroblasts, Table 3, compounds wherein X=N): > 64000 nM; IC50 (T. brucei (Squib 427); Table 3, compounds wherein X=N, read-out: IC50 T. brucei): 540 nM; IC50 (T. vivax (ILRAD700); Table 3, compounds wherein X=N, read-out: IC50 T. vivax): 830 nM; IC50 (T. congolense (IL3000)): 70 nM; IC50 [2]: 610 nM; IC50 [3]: 90 nM; IC50 [4]: > 64000 nM; IC50 (T. cruzi): 2150 nM; IC50 (L. infantum): 10800 nM
OC[C@H]1O[C@@H](n2ccc3c(SCC4CCCCC4)ncnc32)[C@H](O)[C@@H]1O [FH15962, 4-S-cyclohexylmethyl-N7-(β-D-ribofuranosyl)pyrrolo[2,3-d]pyrimidine]	19000 nM	31 ± 10 nM	2860 ± 260 nM	–
OC[C@H]1O[C@@H](n2ccc3c(SCc4ccc(Cl)c(Cl)c4)ncnc32)[C@H](O)[C@@H]1O [FH15934, 4-S-(3,4-dichlorobenzyl)-N7-(β-D-ribofuranosyl)pyrrolo[2,3-d]pyrimidine]	13900 ± 970 nM	85 ± 1 nM	8870 ± 90 nM	–
CC(C)CCSc1ncnc2c1ccn2[C@@H]1O[C@H](CO)[C@@H](O)[C@H]1O [FH15954, 4-S-isopentyl-N7-(β-D-ribofuranosyl)pyrrolo[2,3-d]pyrimidine]	43200 ± 2630 nM	30 ± 4 nM	230 ± 20 nM	–
CC(C)CSc1ncnc2c1ccn2[C@@H]1O[C@H](CO)[C@@H](O)[C@H]1O [FH15955, 4-S-2-methylpropyl-N7-(β-D-ribofuranosyl)pyrrolo[2,3-d]pyrimidine]	> 64000 nM	32 ± 1 nM	21 ± 2 nM	–
CCCSc1ncnc2c1ccn2[C@@H]1O[C@H](CO)[C@@H](O)[C@H]1O [FH15935, 4-S-propyl-N7-(β-D-ribofuranosyl)pyrrolo[2,3-d]pyrimidine]	> 64000 nM	30 ± 0.9 nM	23 ± 5 nM	–
OC[C@H]1O[C@@H](n2ccc3c(SCCCc4ccccc4)ncnc32)[C@H](O)[C@@H]1O [FH15940, 4-(3-phenylpropyl)thio-N7-(β-D-ribofuranosyl)pyrrolo[2,3-d]pyrimidine]	24300 ± 940 nM	106 ± 4 nM	8710 ± 1190 nM	–
OC[C@H]1O[C@@H](n2ccc3c(SC4CCCCC4)ncnc32)[C@H](O)[C@@H]1O [FH15957, 4-S-cyclohexyl-N7-(β-D-ribofuranosyl)pyrrolo[2,3-d]pyrimidine]	58800 ± 1370 nM	190 ± 40 nM	3160 ± 710 nM	–
CC(C)Sc1ncnc2c1ccn2[C@@H]1O[C@H](CO)[C@@H](O)[C@H]1O [FH15958]	> 64000 nM	540 ± 40 nM	460 ± 250 nM	–
CCCCCSc1ncnc2c1ccn2[C@@H]1O[C@H](CO)[C@@H](O)[C@H]1O [FH15937, 4—S-pentyl-N7-(β-D-ribofuranosyl)pyrrolo[2,3-d]pyridimidine]	35300 ± 1000 nM	31 ± 1 nM	2190 ± 610 nM	–
Cc1ccc(CSc2ncnc3c2ccn3[C@@H]2O[C@H](CO)[C@@H](O)[C@H]2O)cc1 [FH15959, 4-S-(4-methylbenzyl)-N7-(β-D-ribofuranosyl)pyrrolo[2,3-d]pyrimidine]	> 64000 nM	31 ± 1 nM	18800 ± 650 nM	–
OC[C@H]1O[C@@H](n2ccc3c(SCCc4ccccc4)ncnc32)[C@H](O)[C@@H]1O [FH15953, 4-S-phenethyl-N7-(β-D-ribofuranosyl)pyrrolo[2,3-d]pyrimidine]	28900 ± 1340 nM	410 ± 10 nM	4930 ± 590 nM	–
COc1ccc(CSc2ncnc3c2ccn3[C@@H]2O[C@H](CO)[C@@H](O)[C@H]2O)cc1 [FH15960]	> 64000 nM	130 ± 8 nM	820 ± 270 nM	–
OC[C@H]1O[C@@H](n2ccc3c(SCC4CCCC4)ncnc32)[C@H](O)[C@@H]1O [FH15939, 4-cylopentylmethylthio-N7-(β-D-ribofuranosyl)pyrrolo[2,3-d]pyrimidine]	32300 ± 1000 nM	32 ± 21 nM	690 ± 250 nM	–

Source: patent US20250320245A1, “Nucleoside Analogues for the Treatment of Parasitic Infections” (Universiteit Antwerpen, priority 2021, published 2025)
